The IC50 is the point on the concentration scale where inhibition reaches its midpoint. The term EC50 denotes the midpoint of the concentration-response curve. As usually defined, the CC50 is the concentration giving 50% cytotoxicity. One may read the half-life as the time needed for the level to fall by half in the phase considered. What is called Cmax is the highest concentration seen after dosing.

Data set [1] is described as follows: Inhibition of MERS CoV 3CL protease using MCA-AVLQSGFR-Lys(Dnp)-Lys-NH2 as substrate by fluorescence based analysis. More on the design: species or system Middle East respiratory syndrome-related coronavirus.
For another data set, the system named is Human coronavirus 229E. The data set can be described thus: Antiviral activity against HCoV-229E infected in African green monkey Vero cells assessed as inhibition of plaque formation by viral plaque assay. Type of data set: functional, organism-based.
Data set [2] relates to Feline infectious peritonitis virus. The data set is described as follows: Antiviral activity against FIPV infected in African green monkey Vero cells assessed as inhibition of plaque formation by viral plaque assay. The note with it: Alphacoronavirus 1, Vero. Type of data set: functional, organism-based.
For data set [3], the system named is Murine hepatitis virus. The data set is described as follows: Antiviral activity against MHV-A59 infected in African green monkey Vero cells assessed as inhibition of plaque formation by viral plaque assay. The note with it: Murine coronavirus. Type of data set: functional, organism-based.
The test system of data set [4] is Murine hepatitis virus. The data set can be described thus: Antiviral activity against MHV infected in African green monkey Vero cells assessed as inhibition of plaque formation by viral plaque assay. The note with it: Murine coronavirus. Type of data set: functional, organism-based.
Data set [5] can be described thus: Cytotoxicity against African green monkey Vero cells. It is filed as toxicity, cell-based. The note with it: chlorocebus sabaeus.
Data set [6] can be described thus: Cytotoxicity against African green monkey Vero E6 cells incubated for 3 hrs by CCK-8 assay. It is filed as toxicity, cell-based, Vero C1008. The note with it: chlorocebus sabaeus.
Data set [7] is described as follows: Cytotoxicity against African green monkey Vero E6 cells by CCK-8 assay. Type of data set: toxicity, cell-based, Vero C1008. The note with it: chlorocebus sabaeus. On the technique in general: Tetrazolium assays rely on reduction of a dye to a coloured formazan, in cell work by metabolically active cells.
Data set [8] can be described thus: Inhibition of FIPV 3CL protease using dabcyl-KTSAVLQ/SGFRKME-edans as substrate incubated for 30 mins followed by substrate addition measured after 30 mins by FRET assay. More on the design: species or system Feline infectious peritonitis virus.
Data set [9] in a line: Inhibition of TGEV 3CL protease using Dabcyl-KTSAVLQ/SGFRKME-Edans as substrate incubated for 30 mins followed by substrate addition measured after 30 mins by FRET assay. More on the design: species or system Transmissible gastroenteritis virus.
Data set [10] is described as follows: Inhibition of MERS 3CL protease using Dabcyl-KTSAVLQ/SGFRKME-Edans as substrate incubated for 30 mins followed by substrate addition measured after 30 mins by FRET assay. More on the design: species or system Middle East respiratory syndrome-related coronavirus.
For data set [11], the system named is SARS-CoV-2. The data set can be described thus: Antiviral activity against SARS CoV-2 assessed as inhibition of virus-induced cytopathic effect by neutral red uptake assay. It is filed as functional, organism-based. The note with it: Severe acute respiratory syndrome coronavirus 2. For orientation: Cytopathic effects are the visible damage that an infection or toxin causes in cultured cells.

Data set [12] is described as follows: Half life in mouse at 2 mg/kg, IM. It is filed as ADME, organism-based. The note with it: in vivo.
Data set [13] is described as follows: Half life in Sprague-Dawley […] measured up to 24 hrs. It is filed as ADME, organism-based.
A short description of data set [14]: Inhibition of MERS CoV 3CL protease expressed in Escherichia coli BL21-Gold DE3 cells by FRET assay. More on the design: species or system Middle East respiratory syndrome-related coronavirus.
Data set [15] can be described thus: Half life in CD-1 mouse at 3 mg/kg, sc measured after up to 24 hrs by HPLC-MS/MS analysis. Type of data set: ADME, organism-based. The note with it: in vivo.
Data set [16] is described as follows: Cmax in CD-1 mouse at 3 mg/kg, sc measured after up to 24 hrs by HPLC-MS/MS analysis. Type of data set: ADME, organism-based. The note with it: in vivo. More on the design: time < 24 hrs, dose 3 mg/kg, route sc.
Data set [17] deals with T1, Replicase polyprotein 1ab (Severe acute respiratory syndrome coronavirus 2, UniProt P0DTD1). The data set can be described thus: Inhibition of recombinant SARS CoV-2 PL protease incubated for 60 mins by fluorescence based analysis.
The target of data set [18] is T1, Replicase polyprotein 1ab. The data set can be described thus: Inhibition of C-terminal 6-His-tagged recombinant SARS CoV-2 3CL protease expressed in Escherichia coli BL21-Gold DE3 cells by FRET assay.
Data set [19] concerns SARS-CoV-2. The data set is described as follows: Antiviral activity against SARS CoV-2 infected in human Calu-3 cells measured after 24 hrs by qRT-PCR analysis. It is filed as functional, organism-based. The note with it: Severe acute respiratory syndrome coronavirus 2, Calu-3, 24 h. (In general: In qPCR the cycle at which signal appears reflects the starting amount.)

Regarding `Cc1cc(C(=O)N[C@@H](C)C(=O)N[C@H](C(=O)N[C@@H](CC(C)C)C(=O)N[C@H](/C=C/C(=O)OCc2ccccc2)C[C@@H]2CCNC2=O)C(C)C)no1`, 300 nM corresponded to half-maximal inhibition in data set [1] (IC50). Moreover, the EC50 in the data set on Human coronavirus 229E is 4 µM; in data set [2], 8.8 µM; with Murine hepatitis virus [3], 2700 nM; with Murine hepatitis virus [4] it was 3.4 µM. Also, in [5], the CC50 was more than 133 µM.
On to `O=c1cc(-c2ccccc2)oc2cc(O)c(O)c(O)c12` [BAICALEIN], for which, in [6], the CC50 at 3 h was more than 200 µM.
As for `CC(C)C[C@H](NC(=O)OCc1ccccc1)C(=O)N[C@@H](C[C@@H]1CCNC1=O)C(O)S(=O)(=O)O` (stereo not given in full), the CC50 in data set [7] is more than 100 µM. Moreover, the IC50 in data set [8] was found to be 720 nM; in data set [9], 820 nM; in [10], 1560 nM.
Turning to `Nc1ncnc2c([C@@H]3N[C@H](CO)[C@@H](O)[C@H]3O)c[nH]c12`, the EC50 in the data set on SARS-CoV-2 [11] came to 57.7 µM. Also, the half-life in [12] is less than 5 min; in data set [13] it was 372 min.
In turn, `CC(C)(C)OC(=O)Nc1cccn([C@@H](CC2CC2)C(=O)N[C@@H](C[C@@H]2CCNC2=O)C(=O)C(=O)NCc2ccccc2)c1=O` gave a half-inhibitory concentration (IC50) in data set [14] of 580 nM. This molecule showed a half-life in data set [15] of less than 120 min. For the same molecule, in [16], the Cmax amounted to 126 ng/mL.
For the molecule `O=C(Nc1ccccc1O)c1ccccc1[Se][Se]c1ccccc1C(=O)Nc1ccccc1O`, the IC50 in data set [17] came to 34 µM.
Take `Nc1cccn([C@@H](CC2CC2)C(=O)N[C@@H](C[C@@H]2CCNC2=O)C(=O)C(=O)NCc2ccccc2)c1=O`: the IC50 in data set [18] is 1340 nM. Further, the EC50 in the data set with SARS-CoV-2 [19] was more than 40 µM.

Source of the values: ChEMBL document CHEMBL5136972, “Targeting SARS-CoV-2 Proteases and Polymerase for COVID-19 Treatment: State of the Art and Future Opportunities” (J Med Chem, 2022).
